Assay results published in US11896604B2, “Composition comprising HMSs/HMOs and use thereof” (Glycom A/S, priority 2014, dated 2024).

Tests used:
[1] = test system: human LS174T cell culture model of goblet cells; test: Mucosal barrier function: goblet cell gene expression by quantitative RT-PCR; type: cell-based; conditions: 5 mg HMO/ml, compared to control cultures
Method: 2′-FL and LNnT are tested with respect to their ability to induce MUC2, TFF3, EIMβ, CHST5, and GAL3ST2 expression in the human LS174T cell culture model of goblet cells. The human LS174T cell line is obtained from the American Type Culture Collection (ATCC). LS174T cells are maintained in minimum essential medium (MEM) supplemented according to instructions at 37° C. in 5% CO2. 2′-FL and LNnT are dissolved in cell culture grade water to the required concentration. The LS174T cells are treated with the HMO solution containing 0 or 5 mg HMO/ml. The LS174T cells are collected and suspended in Trizol reagent and total RNA is isolated using an RNA analysis kit (Qiagen) according to the manufacturer's instructions and the RNA isolates are quantified using Nanodrop analysis (Thermo Fisher Scientific). RNA isolates are reverse transcribed using a high capacity cDNA Reverse Transcription Kit (Applied Biosystems) to create cDNA, which is then used to assess gene expression via quantitative RT-PCR. For the quantitative RT-PCR, specific TaqMAN gene expression assays are obtained from Applied Biosystems, which include expression assays for MUC2, TFF3, CHST5 and GAL3ST2. Quantitative real-time PCR is performed using TaqMAN PCR Master Mix (Applied Biosystems). Reactions are run in duplicates in a 384-well plate using an Applied Biosystems 7900HT Fast Real-Time PCR System. The results are analysed using SDS 2.3 software and calculated by delta delta Ct method. All samples are normalized to Gus-β expression and fold induction is calculated over untreated controls. Gene expression is expressed as fold increase compared to HMO-free control cells. The experiment is repeated three times.

IBS-D patients = conditions: cited from earlier work

Row | Molecule | expression of the MUC2 gene [1] | expression of the TFF3 gene [1] | induction of CHST5 [1] | induction of GAL3 ST2 [1] | bowel movement (IBS-D patients)
1 | 2′-fucosyllactose [2′-FL] | increases | increases | minimal induction | lack of induction | –
2 | CO[C@H]1/C=C/O[C@@]2(C)Oc3c(C)c(O)c4c(O)c(c5c(nc6cc(C)ccn65)c4c3C2=O)NC(=O)/C(C)=C\C=C\[C@H](C)[C@H](O)[C@@H](C)[C@@H](O)[C@@H](C)[C@H](OC(C)=O)[C@@H]1C [rifaximin] | – | – | – | – | reduce
3 | CC(=O)N[C@H]1[C@H](O[C@H]2[C@@H](O)[C@@H](CO)O[C@@H](O[C@H]3[C@H](O)[C@@H](O)C(O)O[C@@H]3CO)[C@@H]2O)O[C@H](CO)[C@@H](O[C@@H]2O[C@H](CO)[C@H](O)[C@H](O)[C@H]2O)[C@@H]1O (mixture of isomers) [LNnT, lacto-N-neotetraose] | increases | increases | minimal induction | lack of induction | –
